Assay: solubility of the azo compound (to water)
Format: physicochemical
Source text: The azo compound of the present invention can be used directly or in formulation with an appropriate carrier or the like, as a colorant for various kinds of articles. […] Said water-based composition is useful as a colorant for various kinds of articles. For example, said water-based composition can dye a material composed of cellulose. In addition, it can dye other materials having carbonamide bonds and widely used for dyeing of leather, textile and paper. Meanwhile, a typical use of the compound of the present invention includes an ink composition prepared by dissolving it in a liquid medium.

| solubility [mg/mL] | Compound |
| --- | --- |
| ≥ 100 | Nc1c(N=Nc2ccc3c(O)c(N=Nc4ccc5c(O)c(N=Nc6ccc(N=Nc7ccc(S(=O)(=O)O)cc7)cc6S(=O)(=O)O)c(S(=O)(=O)O)cc5c4S(=O)(=O)O)c(S(=O)(=O)O)cc3c2S(=O)(=O)O)cc(S(=O)(=O)O)c2cc(S(=O)(=O)O)c(N=Nc3ccc(S(=O)(=O)O)cc3[N+](=O)[O-])c(O)c12 [compound No. 2] |
| ≥ 100 | Cc1cc(N=Nc2c(S(=O)(=O)O)cc3c(S(=O)(=O)O)c(N=Nc4c(S(=O)(=O)O)cc5c(S(=O)(=O)O)c(N=Nc6cc(S(=O)(=O)O)c7cc(S(=O)(=O)O)c(N=Nc8ccc([N+](=O)[O-])cc8S(=O)(=O)O)c(O)c7c6N)ccc5c4O)ccc3c2O)c(OCCCS(=O)(=O)O)cc1N=Nc1cc(S(=O)(=O)O)cc2cc(S(=O)(=O)O)cc(O)c12 [compound No. 13] |

From patent US20090118479A1, “Azo compound, ink composition, recording method and colored article” (priority 2005, published 2009)
